From patent US11124554B2, “Modified ligand-gated ion channels and methods of use” (Howard Hughes Medical Institute, priority 2016, dated 2021)
Entries after “also recorded” stand apart in the source; their conditions may differ. Like-named read-outs stand apart in the source and are kept apart here.

How the values were obtained:
[1] = target: T1, α7-5HT3 (Homo sapiens, UniProt P36544, M226I/T225I); assay: Agonist potency (EC50), HEK cells expressing chimeric channel; type: cell-based, human α7 nAChR LBD, murine 5HT3 IPD
T1 construct: expressed in transfected cells; host or cells: HEK cells
T1 sequence (P36544 with tags, fused parts or gaps T225I/M226I): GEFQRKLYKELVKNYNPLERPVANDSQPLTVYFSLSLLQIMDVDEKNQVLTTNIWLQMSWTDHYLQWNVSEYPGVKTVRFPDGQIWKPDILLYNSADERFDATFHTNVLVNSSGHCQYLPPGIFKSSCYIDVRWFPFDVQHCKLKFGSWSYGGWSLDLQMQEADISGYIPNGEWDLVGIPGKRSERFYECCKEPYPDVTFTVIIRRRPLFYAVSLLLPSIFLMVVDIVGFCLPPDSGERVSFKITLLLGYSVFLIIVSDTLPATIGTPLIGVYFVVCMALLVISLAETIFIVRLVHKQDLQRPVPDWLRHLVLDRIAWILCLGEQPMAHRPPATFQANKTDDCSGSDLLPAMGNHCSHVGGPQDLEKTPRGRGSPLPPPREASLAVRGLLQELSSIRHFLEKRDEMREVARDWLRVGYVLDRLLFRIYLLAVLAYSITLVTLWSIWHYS

[2] = target: T2, α7^Y115F,G175K-GlyR (Homo sapiens, UniProt P36544, G175K/Y115F); assay: Agonist potency at chimeric channel; type: cell-based; details: for EC50: Table 6, read-out: Potency, a7GlyR Y115F G175K
T2 construct: expressed in transfected cells
T2 sequence (P36544 with tags, fused parts or gaps Y115F/G175K): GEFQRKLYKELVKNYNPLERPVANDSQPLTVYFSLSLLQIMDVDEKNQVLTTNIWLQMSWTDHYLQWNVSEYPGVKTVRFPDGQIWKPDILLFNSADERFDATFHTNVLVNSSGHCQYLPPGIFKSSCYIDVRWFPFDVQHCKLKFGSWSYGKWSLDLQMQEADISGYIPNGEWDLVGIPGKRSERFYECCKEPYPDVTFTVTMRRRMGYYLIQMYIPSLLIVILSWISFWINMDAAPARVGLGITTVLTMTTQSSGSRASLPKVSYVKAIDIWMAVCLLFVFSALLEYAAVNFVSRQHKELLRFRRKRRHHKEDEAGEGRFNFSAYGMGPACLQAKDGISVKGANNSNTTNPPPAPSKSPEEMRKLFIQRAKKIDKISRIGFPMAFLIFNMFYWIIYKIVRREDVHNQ

[3] = target: T3, α7^Q79G,G175K-GlyR (Homo sapiens, UniProt P36544, G175K/Q79G); assay: Agonist potency at chimeric channel; type: cell-based; details: Table 6; read-out: Potency, a7GlyR Q79G G175K
T3 construct: expressed in transfected cells
T3 sequence (P36544 with tags, fused parts or gaps Q79G/G175K): as the sequence (P36544 with tags, fused parts or gaps Y115F/G175K) above, with Q57G, F93Y counted along it

[4] = target: T4, α7^G175K-GlyR (Homo sapiens, UniProt P36544, G175K); assay: Agonist potency at chimeric channel; type: cell-based
T4 construct: expressed in transfected cells
T4 sequence (P36544 with tags, fused parts or gaps G175K): as the sequence (P36544 with tags, fused parts or gaps Y115F/G175K) above, with F93Y counted along it

[5] = target: T5, α7GlyR Q79G G175K Y115F R27D E41R (Homo sapiens, UniProt P36544, E41R/G175K/Q79G/R27D/Y115F); assay: Agonist potency at chimeric channel; type: cell-based; details: Table 6; read-out: Potency, a7GlyR Q79G G175K Y115F R27D E41R
T5 construct: expressed in transfected cells
T5 sequence (P36544 with tags, fused parts or gaps R27D/E41R/Q79G/Y115F/G175K): as the sequence (P36544 with tags, fused parts or gaps Y115F/G175K) above, with R5D, E19R, Q57G counted along it

[6] = target: T6, α7^Q79G,Y115F,G175K-GlyR (Homo sapiens, UniProt P36544, G175K/Q79G/Y115F); assay: Agonist potency at chimeric channel; type: cell-based; details: Table 6; read-out: Potency, a7Gly Q79G G175K Y115F
T6 construct: expressed in transfected cells
T6 sequence (P36544 with tags, fused parts or gaps Q79G/Y115F/G175K): as the sequence (P36544 with tags, fused parts or gaps Y115F/G175K) above, with Q57G counted along it

[7] = target: T7, α7^W77F,Q79G,G175K-GlyR (Homo sapiens, UniProt P36544, G175K/Q79G/W77F); assay: Agonist potency at chimeric channel; type: cell-based; details: Table 6; read-out: Potency, a7GlyR W77F Q79G G175K
T7 construct: expressed in transfected cells
T7 sequence (P36544 with tags, fused parts or gaps W77F/Q79G/G175K): as the sequence (P36544 with tags, fused parts or gaps Y115F/G175K) above, with W55F, Q57G, F93Y counted along it

[8] = target: T8, α7-GlyR (Homo sapiens, UniProt P36544); assay: Agonist potency (EC50), HEK cells expressing chimeric channel; type: cell-based
T8 construct: expressed in transfected cells; host or cells: HEK cells
T8 sequence (P36544 with tags, fused parts or gaps): as the sequence (P36544 with tags, fused parts or gaps Y115F/G175K) above, with F93Y, K153G counted along it

[9] = test system: α7GlyR chimeric channels with G175K and A298G mutations; type: cell-based, human
[10] = target: T9, α7^Q79G-GlyR (Homo sapiens, UniProt P36544, Q79G); assay: Agonist potency (EC50), HEK cells expressing chimeric channel; type: cell-based; details: HEK cells; Table 2; read-out: Mean EC50 and SEM in parentheses, α7^Q79G-GlyR
T9 construct: expressed in transfected cells; host or cells: HEK cells
T9 sequence (P36544 with tags, fused parts or gaps Q79G): as the sequence (P36544 with tags, fused parts or gaps Y115F/G175K) above, with Q57G, F93Y, K153G counted along it

[11] = target: T10, α7^Q79A-5HT3 (Homo sapiens, UniProt P36544, M226I/Q79A/T225I); assay: as above; type: cell-based, human α7 nAChR LBD, murine 5HT3 IPD; details: HEK cells; Table 1; read-out: Mean EC50, α7^Q79A-5HT3
T10 construct: expressed in transfected cells; host or cells: HEK cells
T10 sequence (P36544 with tags, fused parts or gaps Q79A/T225I/M226I): as the sequence (P36544 with tags, fused parts or gaps T225I/M226I) above, with Q57A counted along it

[12] = target: T11, α7-GlyR^A298G (Homo sapiens, UniProt P36544, A298G); assay: as above; type: cell-based; details: HEK cells; Table 2; read-out: Mean EC50 and SEM in parentheses, α7-GlyR^A298G
T11 construct: expressed in transfected cells; host or cells: HEK cells
T11 sequence (P36544 with tags, fused parts or gaps, stated change not applied): as the sequence (P36544 with tags, fused parts or gaps Y115F/G175K) above, with F93Y, K153G, A276G counted along it

[13] = target: T12, α7^Q79G-5HT3 (Homo sapiens, UniProt P36544, M226I/Q79G/T225I); assay: as above; type: cell-based, human α7 nAChR LBD, murine 5HT3 IPD; details: HEK cells; Table 1; read-out: Mean EC50, α7^Q79G-5HT3
T12 construct: expressed in transfected cells; host or cells: HEK cells
T12 sequence (P36544 with tags, fused parts or gaps Q79G/T225I/M226I): as the sequence (P36544 with tags, fused parts or gaps T225I/M226I) above, with Q57G counted along it

[14] = target: T13, α7^Q79G-GlyR^A298G (Homo sapiens, UniProt P36544, A298G/Q79G); assay: as above; type: cell-based; details: HEK cells; Table 2; read-out: Mean EC50 and SEM in parentheses, α7^Q79G-GlyR^A298G
T13 construct: expressed in transfected cells; host or cells: HEK cells
T13 sequence (P36544 with tags, fused parts or gaps Q79G): as the sequence (P36544 with tags, fused parts or gaps Y115F/G175K) above, with Q57G, F93Y, K153G, A276G counted along it

[15] = target: T14, α7^Q79S-5HT3 (Homo sapiens, UniProt P36544, M226I/Q79S/T225I); assay: as above; type: cell-based, human α7 nAChR LBD, murine 5HT3 IPD; details: HEK cells; Table 1; read-out: Mean EC50, α7^Q79S-5HT3
T14 construct: expressed in transfected cells; host or cells: HEK cells
T14 sequence (P36544 with tags, fused parts or gaps Q79S/T225I/M226I): as the sequence (P36544 with tags, fused parts or gaps T225I/M226I) above, with Q57S counted along it

[16] = target: T15, α7^Q79A-GlyR (Homo sapiens, UniProt P36544, Q79A); assay: as above; type: cell-based; details: HEK cells; Table 2; read-out: Mean EC50 and SEM in parentheses, α7^Q79A-GlyR
T15 construct: expressed in transfected cells; host or cells: HEK cells
T15 sequence (P36544 with tags, fused parts or gaps Q79A): as the sequence (P36544 with tags, fused parts or gaps Y115F/G175K) above, with Q57A, F93Y, K153G counted along it

[17] = test system: mouse cortical neurons transduced with α7^Q79G,Y115F,G175K-GlyR; assay: Action potential firing of transduced cortical neurons; type: cell-based; details: 100 nM; current injection; restored after washout
Source text: FIGS. 8A-8C show activity of agonists on chimeric LGICs with a G175K mutation. FIG. 8A) A graph of EC50s for Q79G G175K LBD mutants against known agonists normalized to the unmodified α7-GlyR chimeric channel (log scale). […] Unmod.: unmodified α7-GlyR chimeric LGIC. FIG. 8C) Action potentials of cortical neurons from a mouse brain transduced with α7^Q79G,Y115F,G175K-GlyR chimeric LGIC. […] After washout (WASH) of tropisetron, neuron firing is restored
(§1) AAVs or DNA plasmids containing nucleic acids encoding a α7^Q79G-GlyR^A298G or α7Q79G,Y115F,G175K-GlyR chimeric LGICs were transduced into mouse cortical neurons. […] Neuron activity was silenced by application of low concentration of agonist (FIG. 7 and FIG. 8C).

[18] = target: T16, α7^Y115F-GlyR G175V (Homo sapiens, UniProt P36544, G175V/Y115F); assay: Agonist potency at chimeric channel (Table 8); type: cell-based; details: relative to α7^Y115F-GlyR
T16 construct: expressed in transfected cells
T16 sequence (P36544 with tags, fused parts or gaps Y115F/G175V): as the sequence (P36544 with tags, fused parts or gaps Y115F/G175K) above, with K153V counted along it

[19] = target: T17, α7^Q79S,L131G-GlyR (Homo sapiens, UniProt P36544, L131G/Q79S); assay: Agonist potency at chimeric channel (Table 9); type: cell-based; details: α7^Q79S,L131G-GlyR
T17 construct: expressed in transfected cells
T17 sequence (P36544 with tags, fused parts or gaps Q79S/L131G): as the sequence (P36544 with tags, fused parts or gaps Y115F/G175K) above, with Q57S, F93Y, L109G, K153G counted along it

[20] = target: T18, α7^Q79S,L131G,Q139L-GlyR (Homo sapiens, UniProt P36544, L131G/Q139L/Q79S); assay: cell-based; type: cell-based; details: α7^Q79S,L131G,Q139L-GlyR
T18 construct: expressed in transfected cells
T18 sequence (P36544 with tags, fused parts or gaps Q79S/L131G/Q139L): as the sequence (P36544 with tags, fused parts or gaps Y115F/G175K) above, with Q57S, F93Y, L109G, Q117L, K153G counted along it

[21] = target: T19, α7^Y115F-GlyR G175R (Homo sapiens, UniProt P36544, G175R/Y115F); assay: Agonist potency at chimeric channel (Table 8); type: cell-based; details: relative to α7^Y115F-GlyR
T19 construct: expressed in transfected cells
T19 sequence (P36544 with tags, fused parts or gaps Y115F/G175R): as the sequence (P36544 with tags, fused parts or gaps Y115F/G175K) above, with K153R counted along it

[22] = test system: α7^L131G-5HT3 HC; assay: Agonist potency at chimeric channel (Table 9); type: cell-based, human; details: α7^L131G-5HT3 HC
[23] = test system: mouse cortical neurons transduced with α7^Q79G-GlyR^A298G; assay: Action potential firing of transduced cortical neurons; type: cell-based; details: 30 nM; 40 pA current injection; restored after washout
Source text: After washout (WASH) of tropisetron, neuron firing is restored.
as §1

[24] = target: T20, α7^Y115F-GlyR G175S (Homo sapiens, UniProt P36544, G175S/Y115F); assay: Agonist potency at chimeric channel (Table 8); type: cell-based; details: relative to α7^Y115F-GlyR
T20 construct: expressed in transfected cells
T20 sequence (P36544 with tags, fused parts or gaps Y115F/G175S): as the sequence (P36544 with tags, fused parts or gaps Y115F/G175K) above, with K153S counted along it

[25] = target: T21, α7^Y115F-GlyR G175F (Homo sapiens, UniProt P36544, G175F/Y115F); assay: Agonist potency at chimeric channel (Table 8); type: cell-based; details: relative to α7^Y115F-GlyR
T21 construct: expressed in transfected cells
T21 sequence (P36544 with tags, fused parts or gaps Y115F/G175F): as the sequence (P36544 with tags, fused parts or gaps Y115F/G175K) above, with K153F counted along it

[26] = Table 6, read-out: Potency, a7-5HT3
[27] = α7GlyR Q79G A298G G175K Y115F; read-out: Agonist potency

**Q.** With Fc1c(Cl)cccc1NC(=S)N[C@H]1CN2CCC1CC2 [Compound 701] as the molecule, how does the EC50 [1, 26] read?
**A.** > 100 µM

**Q.** Which EC50 [1, 26] does the source give for Fc1ccc(NC(=S)N[C@H]2CN3CCC2CC3)cc1Cl [Compound 702] here?
**A.** > 100 µM

**Q.** Fc1ccc(Cl)cc1NC(=S)N[C@H]1CN2CCC1CC2 [Compound 703] was tested. Which EC50 [1, 26] did it give?
**A.** > 100 µM

**Q.** For Cc1ccc(Cl)cc1NC(=S)N[C@H]1CN2CCC1CC2 [Compound 705], which EC50 [1, 26] is on record?
**A.** > 100 µM

**Q.** And the EC50 [2]?
**A.** > 10 µM

**Q.** What does the source list for FC(F)(F)Oc1ccc(NC(=S)N[C@@H]2CN3CCC2CC3)cc1 [Compound 713]?
**A.** EC50 [3]: 540 nM; EC50 ([4]; Table 6, read-out: Potency, a7GlyR G175K): 2100 nM; EC50 [1, 26]: > 100 µM; EC50 [5]: > 10000 nM; EC50 [6]: 23.9 µM; EC50 [2]: > 10 µM

**Q.** What does the source list for COc1ccc2[nH]cc(C(=O)O[C@H]3C[C@H]4CC[C@@H](C3)N4C)c2c1 [Compound 736]?
**A.** EC50 [3]: 44 nM; EC50 [1, 26]: 0.83 µM; EC50 [5]: 78 nM; EC50 [6]: 0.078 µM; EC50 [2]: 0.57 µM; EC50 [7]: 60 nM

**Q.** For CN1C2CCCC1CC(NC(=O)c1nn(C)c3ccccc13)C2 (centres unmarked) [Granisetron], which “activation of α7-5HT3” value [1] is on record?
**A.** does not activate

**Q.** What about the “activation of α7-GlyR” value [8] of the same molecule?
**A.** does not activate

**Q.** How did the EC50 [1, 26] turn out when c1ccc2c(c1)Sc1ccccc1N2CC1CN2CCC1CC2 (centres unmarked) [Mequitazine] was run?
**A.** > 30 µM

**Q.** What about the EC50 [6] of the same molecule?
**A.** > 10 µM

**Q.** And the EC50 [7]?
**A.** 150 nM

**Q.** What does the source list for CN1CCCC1c1cccnc1 (centres unmarked) [Nicotine]?
**A.** potency enhancement over α7-GlyR [4]: 10 fold; EC50 ([9]; read-out: Agonist potency; α7GlyR Q79G A298G G175K Y115F): 3300 nM; EC50 ([9]; read-out: Agonist potency; α7GlyR Q79G A298G P2161): 1600 nM; EC50 ([9]; read-out: Agonist potency; α7GlyR Q79G A298G Y115F K395 K396A): 16500 nM; EC50 ([9]; read-out: Agonist potency; α7GlyR Q79G G175K A298G): 110 nM; EC50 ([9]; read-out: Agonist potency; α7GlyR Q79G W77F A298G): 3800 nM

**Q.** With O=C(O[C@H]1C[C@H]2CC[C@@H](C1)N2)c1c[nH]c2ccccc12 [Nortropisetron] as the molecule, how does the EC50 [9, 27] read?
**A.** 8.4 nM

**Q.** What about the EC50 ([9]; α7GlyR Q79G A298G Y115F K395 K396A; read-out: Agonist potency) of the same molecule?
**A.** 6.3 nM

**Q.** For CN(C)CCCN1c2ccccc2Sc2ccccc21 [Promazine], which EC50 [1, 26] is on record?
**A.** > 100 µM

**Q.** What about the EC50 [6] of the same molecule?
**A.** > 100 µM

**Q.** Which results are given for Cn1cc(C(=O)C(=O)NC2CN3CCC2CC3)c2ccccc21 (centres unmarked) [RS56812]?
**A.** EC50 [10]: 2000 nM; EC50 ([1]; HEK cells, Table 1, read-out: Mean EC50, α7-5HT3): 10 µM; EC50 [11]: 6.8 µM; EC50 [12]: 2300 nM; EC50 [13]: 1400 nM; EC50 [14]: 610 nM; EC50 [15]: 5.7 µM; EC50 [16]: 3.5 µM; EC50 ([8]; HEK cells, Table 2, read-out: Mean EC50 and SEM in parentheses, α7 GlyR): 6.5 µM

**Q.** CN1[C@@H]2CC[C@H]1C[C@@H](OC(=O)c1c[nH]c3ccccc13)C2 [Tropisetron] was tested. Which “suppression of action potential firing” value [17] did it give?
**A.** silenced; also recorded: potently suppressed

**Q.** What about the “potency enhancement at α7^Y115F-GlyR by additional mutation G175V” value [18] of the same molecule?
**A.** 16.7 fold

**Q.** What about the EC50 [9, 27] of the same molecule?
**A.** 2.8 nM

**Q.** What about the EC50 ([9]; α7GlyR Q79G G175K A298G; read-out: Agonist potency) of the same molecule?
**A.** 0.6 nM

**Q.** What about the “improved potency over α7-GlyR” value [19] of the same molecule?
**A.** 15 fold

**Q.** What about the “improved potency over α7-GlyR” value [20] of the same molecule?
**A.** 3 fold

**Q.** What about the “potency enhancement at α7^Y115F-GlyR by additional mutation G175R” value [21] of the same molecule?
**A.** 5.8 fold

**Q.** And the “potency enhancement at α7^Y115F-GlyR by additional mutation G175K” value ([2]; relative to α7^Y115F-GlyR)?
**A.** 5.6 fold

**Q.** What about the potency enhancement [22] of the same molecule?
**A.** 2.3 fold

**Q.** And the “suppression of action potential firing” value [23]?
**A.** silenced; also recorded: potently suppressed

**Q.** And the “potency enhancement at α7^Y115F-GlyR by additional mutation G175S” value [24]?
**A.** 9.3 fold

**Q.** And the “potency enhancement at α7^Y115F-GlyR by additional mutation G175F” value [25]?
**A.** 2 fold
